The target of one experiment is HDAC-1 (Homo sapiens, UniProt Q13547). In words: HDAC-1 inhibitory activity assay (fluorophore/quencher peptide substrate). The settings on record: enzyme/compound pre-incubated 2 hours at room temperature; reaction about 45 minutes. The experiment is classed as biochemical. On the procedure: (§1) HDAC inhibitory activity of the compound of Example 1 was measured by an assay in which HDAC-1 or -3 were used as a target molecule. The test compound was suspended in and titrated in DMSO. It was then spotted into a 384-well test plate. The enzyme, HDAC-1 or -3, was diluted in assay buffer containing 25 mM Tris-HCl (pH 8.0), 137 mM NaCl, 2.7 mM KCl, and 0.01% Tween-20 and added to the pre-spotted compound. The enzyme/compound mix was incubated at room temperature for 2 hours. The peptide substrate containing a fluorophore/quencher pair was diluted in the same assay buffer and added to the compound/enzyme mix initiating the reaction. The reaction incubated at room temperature for about 45 minutes. A concentrated developer solution was diluted in the assay buffer, and added to the reaction. The reaction was incubated at room temperature for about 15 minutes and relative fluorescence was read on an instrument reader.
Sequence of HDAC-1 (Q13547 whole entry, species assumed): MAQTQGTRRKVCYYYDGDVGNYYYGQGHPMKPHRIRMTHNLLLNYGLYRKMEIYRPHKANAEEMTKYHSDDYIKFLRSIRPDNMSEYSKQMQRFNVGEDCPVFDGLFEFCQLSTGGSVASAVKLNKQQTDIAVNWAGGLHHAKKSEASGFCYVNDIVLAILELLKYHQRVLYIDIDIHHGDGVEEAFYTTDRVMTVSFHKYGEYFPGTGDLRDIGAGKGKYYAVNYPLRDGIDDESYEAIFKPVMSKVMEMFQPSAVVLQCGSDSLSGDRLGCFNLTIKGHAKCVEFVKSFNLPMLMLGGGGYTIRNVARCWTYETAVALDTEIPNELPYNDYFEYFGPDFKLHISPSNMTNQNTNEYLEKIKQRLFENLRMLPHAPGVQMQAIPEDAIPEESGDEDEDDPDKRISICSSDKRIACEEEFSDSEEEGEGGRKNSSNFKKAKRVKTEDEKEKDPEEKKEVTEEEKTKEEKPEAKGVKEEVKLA

The next experiment addresses HDAC-3 (Homo sapiens, UniProt O15379). As to the kind of experiment: HDAC-3 inhibitory activity assay (fluorophore/quencher peptide substrate). Conditions: enzyme/compound pre-incubated 2 hours at room temperature; reaction about 45 minutes. The experiment is classed as biochemical. The protocol: as §1

Structures are written as SMILES.

Sequence of HDAC-3 (O15379 whole entry, species assumed): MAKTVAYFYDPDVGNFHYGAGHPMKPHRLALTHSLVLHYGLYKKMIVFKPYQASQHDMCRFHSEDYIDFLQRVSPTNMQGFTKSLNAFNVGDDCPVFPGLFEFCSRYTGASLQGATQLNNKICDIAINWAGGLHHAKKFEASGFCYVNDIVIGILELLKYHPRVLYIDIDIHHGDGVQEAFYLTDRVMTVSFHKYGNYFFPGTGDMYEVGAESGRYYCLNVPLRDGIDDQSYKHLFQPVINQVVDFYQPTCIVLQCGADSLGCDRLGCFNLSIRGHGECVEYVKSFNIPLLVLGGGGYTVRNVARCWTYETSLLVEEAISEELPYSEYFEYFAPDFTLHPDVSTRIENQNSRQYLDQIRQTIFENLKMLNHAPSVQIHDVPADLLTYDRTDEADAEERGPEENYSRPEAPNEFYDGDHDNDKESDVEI
Sequence of HDAC-3 (Q9Y618 395-489 partner limits assumed, species assumed): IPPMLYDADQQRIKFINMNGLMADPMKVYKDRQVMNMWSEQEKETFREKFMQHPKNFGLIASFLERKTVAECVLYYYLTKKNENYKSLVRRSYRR

The IC50 is the concentration that inhibits the measured activity by half. `CC(C)(C)OC(=O)NC1(C(=O)Nc2ccc(C(=O)Nc3ccccc3N)cc2)CCCCC1` [Example 1, tert-Butyl-1-((4-((2-aminophenyl)carbamoyl)phenyl)carbamoyl)cyclohexyl carbamate]: the half-maximal inhibitory concentration (IC50) against HDAC-1 stood at 0.0447 µM; against HDAC-3, 0.378 µM.
For `CC(C)(C)OC(=O)NC1(C(=O)Nc2ccc(C(=O)Nc3ccccc3N)cc2)CC1` [Example 2, tert-Butyl-1-((4-((2-aminophenyl)carbamoyl)phenyl)carbamoyl)cyclopropyl carbamate] the same measures were 0.0628 µM and 0.378 µM.
Consider `CC(C)(C)OC(=O)NC1(C(=O)Nc2ccc(C(=O)Nc3ccccc3N)cc2)CCCC1` [Example 3, tert-Butyl-1((4-((2-aminophenyl)carbamoyl)phenyl)carbamoyl)cyclopentylcarbamate], for which the IC50 against HDAC-1 was determined as 0.0609 µM; against HDAC-3, 0.482 µM.
For `Nc1ccccc1NC(=O)c1ccc(NC(=O)C2(NC(=O)OCc3ccccc3)CC2)cc1` [Example 4, Benzyl-1-((4-((2-aminophenyl)carbamoyl)phenyl)carbamoyl)cyclopropyl carbamate] the same measures were 0.025 µM and 0.171 µM.
For the compound `Nc1ccc(-c2cccs2)cc1NC(=O)c1ccc(NC(=O)C2(NC(=O)OCc3ccccc3)CC2)cc1` [Example 5, Benzyl-1-((4-((2-amino-5-(thiophen-2-yl)phenyl)carbamoyl)phenyl)carbamoyl)cyclopropyl carbamate], the IC50 was 0.0034 µM on HDAC-1 and over 10 µM against HDAC-3.
For `Nc1ccc(-c2ccc(F)cc2)cc1NC(=O)c1ccc(NC(=O)C2(NC(=O)OCc3ccccc3)CC2)cc1` [Example 6, Benzyl-1-((4-((2-amino-5-(4-fluorophenyl)phenyl)carbamoyl)phenyl)carbamoyl)cyclopropyl carbamate] the same measures were 0.0074 µM and over 10 µM.
For `Nc1ccc(-c2ccc(Cl)s2)cc1NC(=O)c1ccc(NC(=O)C2(NC(=O)OCc3ccccc3)CC2)cc1` [Example 7, Benzyl-1-((4-((2-amino-5-(5-chlorothiophen-2-yl)phenyl)carbamoyl)phenyl)carbamoyl)cyclopropylcarbamate] the same measures were 0.0267 µM and over 10 µM.
`Nc1ccc(-c2cccs2)cc1NC(=O)c1ccc(NC(=O)C2(NC(=O)OCc3ccccc3)CC2)c(F)c1` [Example 8, Benzyl-1-((4-((2-amino-5-(thiophen-2-yl)phenyl)carbamoyl)-2-fluorophenyl)carbamoyl)cyclopropylcarbamate]: the IC50 was 0.0056 µM against HDAC-1 and over 10 µM on HDAC-3.
In the case of `CN(C(=O)C1(NC(=O)OCc2ccccc2)CC1)c1ccc(C(=O)Nc2cc(-c3ccc(F)cc3)ccc2N)cc1` [Example 9, Benzyl-1-((4-((2-amino-5-(4-Fluorophenyl)phenyl)carbamoyl)phenyl)(methyl)carbamoyl)cyclopropylcarbamate], the half-maximal inhibitory concentration (IC50) against HDAC-1 came to 0.0082 µM; on HDAC-3 it was 7.51 µM.
For `Nc1ccc(-c2ccc(F)cc2)cc1NC(=O)c1ccc(NC(=O)C2(N)CC2)cc1` [Example 10, N-(4-Amino-4′-fluorobiphenyl-3-yl)-4-(1-aminocyclopropanecarboxamido)benzamide] the same measures were 0.0052 µM and over 10 µM.
With `CC(C)(C)NC(=O)NC1(C(=O)Nc2ccc(C(=O)Nc3cc(-c4ccc(F)cc4)ccc3N)cc2)CC1` [Example 11, N-(4-amino-4′-fluorobiphenyl-3-yl)-4-(1-(3-tert-butylureido)cyclopropanecarboxamido)benzamide], the values for the concentration for half-maximal inhibition (IC50) at HDAC-1 and against HDAC-3 were 0.009 µM and over 10 µM, respectively.

The values above are taken from patent US8283357B2, “Cycloalkylcarbamate benzamide aniline HDAC inhibitor compounds” (Gilead Sciences, Inc., priority 2009, dated 2012).
